Three compounds from ChEMBL document CHEMBL3576805, “Discovery of a Dual PRMT5-PRMT7 Inhibitor” (ACS Med Chem Lett, 2015) can be followed below.

The source made the active and inactive calls. The calls are words filed in the database; no cut-off is given here.

Data set [1] has as its target DNA (cytosine-5)-methyltransferase 3A (Homo sapiens, UniProt Q9Y6K1). Briefly: Inhibition of human full length DNMT3A expressed in Sf9 cells.
In data set [2] the target is DNA (cytosine-5)-methyltransferase 3B (Homo sapiens, UniProt Q9UBC3). Description: Inhibition of human full length DNMT3B expressed in Sf9 cells.
For data set [3], the target named is T1, Protein arginine N-methyltransferase 7 (Homo sapiens, UniProt Q9NVM4).
T1 sequence (Q9NVM4 whole entry): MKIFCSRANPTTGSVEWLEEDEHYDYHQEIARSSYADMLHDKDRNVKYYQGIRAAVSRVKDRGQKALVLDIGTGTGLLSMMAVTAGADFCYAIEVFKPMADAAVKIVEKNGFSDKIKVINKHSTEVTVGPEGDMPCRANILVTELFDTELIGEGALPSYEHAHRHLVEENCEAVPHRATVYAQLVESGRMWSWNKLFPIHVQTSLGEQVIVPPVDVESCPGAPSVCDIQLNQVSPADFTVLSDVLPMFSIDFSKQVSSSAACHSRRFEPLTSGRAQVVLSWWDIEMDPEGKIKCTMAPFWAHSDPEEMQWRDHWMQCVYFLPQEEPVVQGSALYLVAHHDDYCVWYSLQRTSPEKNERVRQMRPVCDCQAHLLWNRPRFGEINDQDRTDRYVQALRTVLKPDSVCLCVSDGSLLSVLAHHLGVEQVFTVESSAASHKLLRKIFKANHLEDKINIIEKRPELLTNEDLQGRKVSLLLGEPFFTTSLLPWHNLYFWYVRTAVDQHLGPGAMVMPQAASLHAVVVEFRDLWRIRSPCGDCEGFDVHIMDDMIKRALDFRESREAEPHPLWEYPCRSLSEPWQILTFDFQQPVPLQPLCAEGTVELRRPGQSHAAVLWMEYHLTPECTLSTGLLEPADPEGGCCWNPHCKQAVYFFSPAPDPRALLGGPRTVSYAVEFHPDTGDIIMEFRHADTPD
Description: Inhibition of human full length PRMT7 expressed in Sf9 cells.

Data set [4] deals with T2, PRMT5/MEP50 complex (Homo sapiens) (UniProt O14744+Q9BQA1). Description: Inhibition of human full length PRMT5-MEP50 complex expressed in Sf9 cells assessed as inhibition of methylation of peptide substrate at 750 uM.
Data set [5] has as its target T3, PRMT5/MEP50 complex (Homo sapiens, UniProt O14744). Briefly: (§1) Inhibition of human full length PRMT5-MEP50 complex expressed in Sf9 cells.
Data set [6] deals with Protein arginine N-methyltransferase 5 (Homo sapiens, UniProt O14744). Briefly: Inhibition of human full length PRMT5 expressed in Sf9 cells.
Sequence of Protein arginine N-methyltransferase 5 (O14744 whole entry): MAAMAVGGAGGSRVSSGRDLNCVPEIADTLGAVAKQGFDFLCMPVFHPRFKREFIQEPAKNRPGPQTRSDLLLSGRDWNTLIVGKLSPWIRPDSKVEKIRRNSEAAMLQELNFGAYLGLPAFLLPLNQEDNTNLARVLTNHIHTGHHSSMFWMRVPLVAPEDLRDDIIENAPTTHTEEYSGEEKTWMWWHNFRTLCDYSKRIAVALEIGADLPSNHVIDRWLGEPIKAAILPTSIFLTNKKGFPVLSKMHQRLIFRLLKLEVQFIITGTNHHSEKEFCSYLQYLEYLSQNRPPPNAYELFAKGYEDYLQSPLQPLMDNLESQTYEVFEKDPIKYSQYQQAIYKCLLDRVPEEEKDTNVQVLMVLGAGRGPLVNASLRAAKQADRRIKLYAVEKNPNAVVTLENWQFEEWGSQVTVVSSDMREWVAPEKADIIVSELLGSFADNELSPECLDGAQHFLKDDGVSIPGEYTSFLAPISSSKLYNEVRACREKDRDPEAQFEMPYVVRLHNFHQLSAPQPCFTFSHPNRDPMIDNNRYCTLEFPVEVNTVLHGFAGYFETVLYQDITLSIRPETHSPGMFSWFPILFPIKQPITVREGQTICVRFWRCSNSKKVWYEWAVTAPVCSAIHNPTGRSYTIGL
Data set [7] concerns the target Protein arginine N-methyltransferase 1 (Homo sapiens) (UniProt Q99873). Description: Inhibition of PRMT1 (unknown origin).
Data set [8] concerns the target Protein arginine N-methyltransferase 3 (Homo sapiens) (UniProt O60678). Briefly: Inhibition of PRMT3 (unknown origin).
Data set [9] concerns the target T1, Protein arginine N-methyltransferase 7. Briefly: Binding affinity to human full length PRMT7 by Surface plasmon resonance method.
For data set [10], the target named is T2, PRMT5/MEP50 complex (Homo sapiens). Description: Inhibition of human full length PRMT5-MEP50 complex expressed in Sf9 cells using SmD3 peptide AGRGRGKAAILKAQVAARGRGRGMGRGN as a substrate.
For data set [11], the target named is T3, PRMT5/MEP50 complex. Briefly: Binding affinity to human full length PRMT5-MEP50 complex by Surface plasmon resonance method. In kind it is protein-complex assay.
The test system of data set [12] is MDA-MB-231. Briefly: Inhibition of H4R3 methylation in human MDA-MB-231 cells at 50 uM by immunoblotting analysis. The data set is classed as functional, cell-based. (In western blotting, separated proteins are transferred to a membrane and probed.)
Data set [13] concerns the target T3, PRMT5/MEP50 complex. Briefly: Inhibition of human full length PRMT5-MEP50 complex expressed in Sf9 cells using full length histone H4 substrate.
Data set [14] addresses T2, PRMT5/MEP50 complex (Homo sapiens). Described as §1.
Data set [15] addresses Protein arginine N-methyltransferase 6 (Homo sapiens) (UniProt Q96LA8). Briefly: Inhibition of PRMT6 (unknown origin).
The target of data set [16] is Protein arginine N-methyltransferase 8 (Homo sapiens) (UniProt Q9NR22). Description: Inhibition of PRMT8 (unknown origin).
Sequence of Protein arginine N-methyltransferase 8 (Homo sapiens) (Q9NR22 2-394 limits assumed): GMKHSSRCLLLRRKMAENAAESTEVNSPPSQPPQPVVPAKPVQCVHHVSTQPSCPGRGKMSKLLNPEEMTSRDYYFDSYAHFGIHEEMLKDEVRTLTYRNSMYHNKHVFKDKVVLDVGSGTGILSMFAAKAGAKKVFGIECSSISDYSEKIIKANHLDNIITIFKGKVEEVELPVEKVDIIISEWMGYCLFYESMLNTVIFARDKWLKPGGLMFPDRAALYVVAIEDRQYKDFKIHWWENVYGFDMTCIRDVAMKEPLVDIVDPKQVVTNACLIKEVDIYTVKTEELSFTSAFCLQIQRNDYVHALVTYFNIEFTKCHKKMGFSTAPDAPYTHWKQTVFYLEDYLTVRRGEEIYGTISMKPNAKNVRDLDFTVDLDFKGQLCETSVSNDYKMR
Data set [17] has as its system MDA-MB-231. Briefly: Cytotoxicity against human MDA-MB-231 cells assessed as cell viability by Alamar blue assay. The data set is classed as cell-based.
Data set [18] addresses T2, PRMT5/MEP50 complex (Homo sapiens). Briefly: Noncompetitive inhibition of human full length PRMT5-MEP50 complex expressed in Sf9 cells in presence of increasing concentration of histone peptide substrate.

T3 sequence (O14744 whole entry): as the sequence (O14744 whole entry) above
T3 sequence (Q9BQA1 whole entry, further chain): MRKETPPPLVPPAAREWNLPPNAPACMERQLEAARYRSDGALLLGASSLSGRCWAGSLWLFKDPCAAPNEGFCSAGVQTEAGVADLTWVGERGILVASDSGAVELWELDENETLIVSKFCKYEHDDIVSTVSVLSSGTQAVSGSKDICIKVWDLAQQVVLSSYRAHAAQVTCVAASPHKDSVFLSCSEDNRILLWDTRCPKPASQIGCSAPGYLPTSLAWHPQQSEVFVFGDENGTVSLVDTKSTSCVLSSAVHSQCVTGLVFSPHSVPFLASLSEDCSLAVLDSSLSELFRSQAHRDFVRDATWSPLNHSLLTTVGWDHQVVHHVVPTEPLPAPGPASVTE
Sequence of DNA (cytosine-5)-methyltransferase 3A (Q9Y6K1 whole entry, looked up): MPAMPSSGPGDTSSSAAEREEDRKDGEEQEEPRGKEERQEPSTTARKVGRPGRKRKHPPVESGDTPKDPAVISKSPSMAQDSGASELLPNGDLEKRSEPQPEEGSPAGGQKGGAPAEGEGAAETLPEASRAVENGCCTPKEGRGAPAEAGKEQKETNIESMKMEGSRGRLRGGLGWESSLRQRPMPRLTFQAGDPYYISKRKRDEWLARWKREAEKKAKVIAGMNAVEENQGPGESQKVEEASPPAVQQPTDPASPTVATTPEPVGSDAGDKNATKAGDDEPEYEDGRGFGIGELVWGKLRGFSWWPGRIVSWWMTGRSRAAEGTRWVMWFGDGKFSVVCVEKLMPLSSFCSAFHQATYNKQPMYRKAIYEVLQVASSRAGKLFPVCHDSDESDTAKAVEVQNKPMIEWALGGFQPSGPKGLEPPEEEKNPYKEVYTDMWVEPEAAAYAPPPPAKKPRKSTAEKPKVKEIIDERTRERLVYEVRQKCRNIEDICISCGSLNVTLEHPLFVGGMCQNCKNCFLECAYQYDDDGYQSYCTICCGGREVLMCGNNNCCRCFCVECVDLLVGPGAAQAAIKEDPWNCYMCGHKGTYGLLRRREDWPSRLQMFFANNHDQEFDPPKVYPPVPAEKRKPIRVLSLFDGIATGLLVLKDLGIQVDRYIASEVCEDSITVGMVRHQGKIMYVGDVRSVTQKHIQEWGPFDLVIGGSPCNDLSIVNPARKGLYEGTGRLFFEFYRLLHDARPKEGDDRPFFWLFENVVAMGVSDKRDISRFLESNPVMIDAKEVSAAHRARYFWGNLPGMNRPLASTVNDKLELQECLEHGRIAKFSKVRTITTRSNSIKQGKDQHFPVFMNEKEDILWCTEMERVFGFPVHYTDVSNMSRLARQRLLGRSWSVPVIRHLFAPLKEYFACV
Sequence of Protein arginine N-methyltransferase 6 (Homo sapiens) (Q96LA8 whole entry, looked up): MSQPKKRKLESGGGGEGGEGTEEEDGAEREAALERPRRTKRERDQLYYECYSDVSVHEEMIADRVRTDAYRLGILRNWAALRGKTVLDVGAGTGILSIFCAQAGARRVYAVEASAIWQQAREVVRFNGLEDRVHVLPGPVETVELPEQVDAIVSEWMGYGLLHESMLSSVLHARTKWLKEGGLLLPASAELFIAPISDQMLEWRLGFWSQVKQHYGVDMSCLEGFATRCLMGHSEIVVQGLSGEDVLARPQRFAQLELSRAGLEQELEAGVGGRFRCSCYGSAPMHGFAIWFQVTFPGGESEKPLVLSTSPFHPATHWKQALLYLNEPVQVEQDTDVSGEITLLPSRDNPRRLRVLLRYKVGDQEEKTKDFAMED
Sequence of Protein arginine N-methyltransferase 1 (Homo sapiens) (Q99873 whole entry, looked up): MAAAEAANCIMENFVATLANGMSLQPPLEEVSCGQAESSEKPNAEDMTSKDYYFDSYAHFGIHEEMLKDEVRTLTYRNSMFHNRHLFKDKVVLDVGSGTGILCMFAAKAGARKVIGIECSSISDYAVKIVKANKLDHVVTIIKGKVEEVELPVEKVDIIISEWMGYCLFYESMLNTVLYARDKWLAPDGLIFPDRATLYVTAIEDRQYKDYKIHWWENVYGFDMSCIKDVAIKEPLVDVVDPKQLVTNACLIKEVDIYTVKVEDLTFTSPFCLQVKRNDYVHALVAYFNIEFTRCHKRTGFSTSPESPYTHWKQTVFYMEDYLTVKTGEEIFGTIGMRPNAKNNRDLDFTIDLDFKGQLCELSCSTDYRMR
Sequence of Protein arginine N-methyltransferase 3 (Homo sapiens) (O60678 2-531 limits assumed): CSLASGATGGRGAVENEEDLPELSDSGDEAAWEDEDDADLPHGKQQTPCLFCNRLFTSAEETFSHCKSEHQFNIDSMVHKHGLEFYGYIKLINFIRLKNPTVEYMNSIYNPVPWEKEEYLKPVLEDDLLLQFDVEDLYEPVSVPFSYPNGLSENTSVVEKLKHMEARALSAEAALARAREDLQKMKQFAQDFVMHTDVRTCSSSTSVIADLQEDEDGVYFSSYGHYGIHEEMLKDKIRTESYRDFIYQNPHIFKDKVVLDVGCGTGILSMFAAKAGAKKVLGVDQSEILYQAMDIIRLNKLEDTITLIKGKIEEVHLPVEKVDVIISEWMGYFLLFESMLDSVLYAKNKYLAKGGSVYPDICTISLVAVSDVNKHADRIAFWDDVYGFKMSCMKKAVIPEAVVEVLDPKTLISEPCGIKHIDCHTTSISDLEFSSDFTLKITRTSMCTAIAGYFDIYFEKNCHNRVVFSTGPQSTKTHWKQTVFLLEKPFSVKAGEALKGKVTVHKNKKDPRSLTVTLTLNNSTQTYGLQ

As usually defined, the IC50 is the concentration that inhibits the measured activity by half. Read a low IC50 as greater potency in that assay. In the case of `Nc1ncnc2c1ncn2[C@@H]1O[C@H](CSCC[C@H](N)C(=O)O)[C@@H](O)[C@H]1O` [S-ADENOSYLHOMOCYSTEINE], the IC50 in [1] and in data set [2] was above 50 µM throughout.
The term inhibition denotes how much of the control response was suppressed. As to `CC(C)N(CCCNC(=O)Nc1ccc(C(C)(C)C)cc1)C[C@H]1O[C@@H](n2ccc3c(N)ncnc32)[C@H](O)[C@@H]1O`, the IC50 in data set [3] was 7.5 µM; against PRMT5/MEP50 complex [5], above 20 µM. The inhibition in data set [4] came to 80%.
Broadly, the Kd is the constant that tells how readily two partners part at equilibrium. A lower Kd goes with a tighter complex. `CCNC(=O)NCCSC[C@H]1O[C@@H](n2cnc3c(N)ncnc32)[C@H](O)[C@@H]1O`: the concentration for half-maximal inhibition (IC50) is above 50 µM in data set [6]; above 50 µM in data set [1]; above 50 µM in data set [3]; 37 µM at PRMT5/MEP50 complex [13]; 5.9 µM at PRMT5/MEP50 complex [5]; above 50 µM in [2]. Also, the inhibition entry (in data set [7]; in data set [8]; in the data set on MDA-MB-231 [12]; in data set [15]; in data set [16]) was “inactive” each time. Also, the Kd in data set [9] amounted to 37 µM; at PRMT5/MEP50 complex [11] it was 25 µM. In addition, the inhibition entry in [10] and in data set [18] was “Active” in each case. In [14], the inhibition result is “Dose-dependent effect”. Also, in the data set on MDA-MB-231 [17], the Activity result is “Non-toxic”.
